Laboratory results as given in PMC12177571, “Glycosidase-activated prodrugs of a cytotoxic iron chelator for targeted cancer therapy” (RSC Medicinal Chemistry, 2025).

What was measured:
β-galactosidase = target: T1, β-galactosidase (Escherichia coli, UniProt P00722); assay: Enzymatic cleavage study (HPLC) with β-galactosidase; assay type: biochemical, e.coli; conditions: 100 μM prodrug in PBS, 2 units β-galactosidase, 37°C
T1 construct: purchased Roche; host or cells: E. coli overproducer
Experimental: (§1) To test the desired, selective enzymatic cleavage and further evaluate compound stability, solutions of each prodrug were prepared in phosphate-buffered saline (PBS), and either β-galactosidase or β-glucosidase were added. After incubation times of 24 h and 48 h, samples from each mixture were analyzed by HPLC to gain insight into the relative amounts of both the remaining prodrug and the liberated 1.
(§2) Fig. 3 HPLC traces after 48 h of enzyme incubation for the prodrugs of this study as indicated at their respective peaks. The identity of the employed enzyme is indicated on the left of the chromatogram and the identity of each observed compound is shown above the respective peak. Chromatograms are shown with an offset of 2 along the ordinate to facilitate comparison.
(§3) The three following enzymes were employed in this study:
(§4) (1) esterase from porcine liver sourced from Sigma Aldrich as dry powder with an activity of 229.4 units/mg protein as indicated by the supplier for the received lot; (2) β-glucosidase from almonds sourced from Sigma Aldrich as dry powder with an activity of 11.7 U/mg as indicated by the supplier for the received lot
(§5) (3) β-galactosidase from e.coli overproducer sourced from Roche as prepared aqueous solution with an activity of 1500 units/mL protein as indicated by the supplier for the […]
(§6) As indicated for each experiment below, the respective enzyme was dissolved in PBS buffer and diluted as appropriate to produce the desired concentration.
25 mM stock solutions in DMSO were prepared for 2a, 2b, 3a, and 3b. From these stock solutions, 4 µL was added to 1 mL of PBS buffer, respectively, in separate glass vials, achieving a final concentration of 100 µM. The vials were then assigned to one of three experimental groups: control, negative, and positive.
In the control group, no enzyme was introduced. The negative group received 2 units of esterase enzyme, while the positive group received 2 units of the target enzyme as indicated, either β-galactosidase or β-glucosidase. All vials were incubated in a 37°C water bath for 48 hours. Aliquots were extracted from each vial after 24 and 48 hours, respectively, and analyzed as described below.
(§7) The extracted aliquots were analyzed via high-performance liquid chromatography (HPLC) with ultraviolet (UV) detection at a wavelength of 254 nm. Chromatograms were plotted with an offset of 1 along the y-axis to allow clear intercomparison of the data across the […]

[1] = Stability in PBS without enzyme (HPLC control group); assay type: physicochemical; conditions: 100 μM in PBS, no enzyme, 37°C, up to 48 h
Experimental: Additional selectivity control experiments were conducted, in which either no enzyme or an “incorrect” enzyme such as an esterase was used (see Fig. S13–S24 in the ESI ^†).
as §3, §4, §5, §6
25 mM stock solutions in DMSO were prepared for 2a, 2b, 3a, and 3b. From these stock solutions, 4 µL was added to 1 mL of PBS buffer, respectively, in separate glass vials, achieving a final concentration of 100 µM. […]
In the control group, no enzyme was introduced. […] Aliquots were extracted from each vial after 24 and 48 hours, respectively, and analyzed as described below.
The extracted aliquots were analyzed via high-performance liquid chromatography (HPLC) with ultraviolet (UV) detection at a wavelength of 254 nm. […]

β-glucosidase [2] = assay: Enzymatic cleavage study (HPLC) with β-glucosidase; assay type: biochemical, almonds; conditions: for Release of 1 (HPLC): 100 μM prodrug in PBS, 2 units β-glucosidase, 37°C
Experimental: as §1, §2, §3, §4, §5, §6
25 mM stock solutions in DMSO were prepared for 2a, 2b, 3a, and 3b. […]
[…] The vials were then assigned to one of three experimental groups: control, negative, and positive.
In the control group, no enzyme was introduced. […]
All vials were incubated in a 37°C water bath for 48 hours. Aliquots were extracted from each vial after 24 and 48 hours, respectively, and analyzed as described below.
as §7

β-glucosidase [3] = assay: AIE fluorescence study of release of 1 with β-glucosidase; assay type: biochemical, almonds; conditions: for Relative emission intensity at 480 nm (for 3b at 420 nm): 20 μM in water; for Fluorescence emission / release of 1 (in words): water, three enzyme units of β-glucosidase, 0 h and 24 h
Experimental: The AIE fluorescence properties of 1 were used as a means of supporting the above conclusion. The emission of all glycosylated prodrugs is suppressed. Thus, solutions of each prodrug were prepared in water, and three enzyme units of β-galactosidase or β-glucosidase, as appropriate, were added to the prodrugs. Each mixture was then analysed by fluorescence spectroscopy after 24 h of incubation. […] This finding is consistent with a lack of enzymatic activation.
Fig. 4 Relative emission intensity at 480 nm (*for 3b at 420 nm) of evaluated compounds at 20 μM before and after incubation with 3 U of the appropriate enzyme. TEXT PRINTED IN THE PICTURE: 1: Relative Emission 480 nm: 100% (Before incubation); Relative Emission 480 nm: 100% (After 24 h incubation) | 2a: Relative Emission 480 nm: 0% (Before incubation); Relative Emission 480 nm: 0% (After 24 h incubation) | 2b: Relative Emission 480 nm: 0% (Before incubation); Relative Emission 480 nm: 1% (After 24 h incubation) | 3a: Relative Emission 480 nm: 1% (Before incubation); Relative Emission 480 nm: 33% (After 24 h incubation) | 3b*: Relative Emission 480 nm: 1% (Before incubation); Relative Emission 480 nm: 11% (After 24 h incubation)
Figure S25: Fluorescence spectra for excitation (blue) and emission (green) of 1 at a concentration of 20 μM in water. […]
Figure S27: Fluorescence spectra for excitation (blue) and emission (green) of 2b at a concentration of 20 μM in water
before (left) and after (right) incubation with 3 units of b-glucosidase for 24 h. […]
Figure S29: Fluorescence spectra for excitation (blue) and emission (green) of 3b at a concentration of 20 μM in water
before (left) and after (right) incubation with 3 units of β-glucosidase for 24 h. […]

[4] = after 24 h incubation with 3 U β-glucosidase
[5] = before incubation with 3 U β-glucosidase

T1 sequence (P00722 2-1024): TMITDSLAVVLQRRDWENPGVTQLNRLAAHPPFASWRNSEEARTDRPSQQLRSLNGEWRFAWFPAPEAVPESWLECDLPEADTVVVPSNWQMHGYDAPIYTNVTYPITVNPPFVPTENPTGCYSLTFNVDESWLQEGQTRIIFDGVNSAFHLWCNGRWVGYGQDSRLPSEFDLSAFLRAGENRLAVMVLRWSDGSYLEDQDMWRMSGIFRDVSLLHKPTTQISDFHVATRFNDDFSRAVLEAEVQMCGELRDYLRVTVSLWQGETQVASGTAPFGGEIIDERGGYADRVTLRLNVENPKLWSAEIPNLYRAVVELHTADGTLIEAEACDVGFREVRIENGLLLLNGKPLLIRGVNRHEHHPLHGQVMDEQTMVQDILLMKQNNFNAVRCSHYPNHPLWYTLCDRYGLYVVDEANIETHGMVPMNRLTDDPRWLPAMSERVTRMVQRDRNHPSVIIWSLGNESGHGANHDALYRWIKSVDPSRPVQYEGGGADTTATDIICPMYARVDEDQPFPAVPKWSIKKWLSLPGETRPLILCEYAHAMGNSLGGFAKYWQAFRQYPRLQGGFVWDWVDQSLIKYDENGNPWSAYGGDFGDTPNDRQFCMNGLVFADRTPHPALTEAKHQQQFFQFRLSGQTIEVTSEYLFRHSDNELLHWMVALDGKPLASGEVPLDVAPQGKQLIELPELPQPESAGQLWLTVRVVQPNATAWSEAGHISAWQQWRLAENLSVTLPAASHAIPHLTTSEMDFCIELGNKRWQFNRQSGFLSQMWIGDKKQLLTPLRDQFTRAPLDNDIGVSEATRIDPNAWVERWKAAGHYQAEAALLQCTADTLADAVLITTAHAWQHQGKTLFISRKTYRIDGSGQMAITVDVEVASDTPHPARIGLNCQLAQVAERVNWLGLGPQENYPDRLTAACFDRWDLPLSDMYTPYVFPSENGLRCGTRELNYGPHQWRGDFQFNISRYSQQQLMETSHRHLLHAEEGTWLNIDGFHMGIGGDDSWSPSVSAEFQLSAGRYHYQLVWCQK

Release of 1 (HPLC) (β-glucosidase [2]; 24 h)	Release of 1 (HPLC) (β-glucosidase [2]; 48 h)	Relative emission intensity at 480 nm (for 3b at 420 nm) (β-glucosidase [3]; [4])	Relative emission intensity at 480 nm (for 3b at 420 nm) (β-glucosidase [3]; [5])	Fluorescence emission / release of 1 (in words) (β-glucosidase [3])	Cleavage of 1 from prodrug (HPLC of the fluorescence sample) (β-glucosidase [2]; 20 μM in water, 3 enzyme units of β-glucosidase, 24 h)	Compound	Release of 1 (HPLC) (β-galactosidase; 24 h)	Release of 1 (HPLC) (β-galactosidase; 48 h)	Stability in PBS / aqueous media [1]
						OC[C@H]1OC(Oc2ccccc2-c2nc(-c3ccccc3O)nn2-c2ccccc2)[C@H](O)[C@@H](O)[C@H]1O (some centres unmarked) [2a]	no release of 1 was observed	no release of 1 was observed	good stability in aqueous media
no release of 1 was observed	no release of 1 was observed	1%	0%	no fluorescence emission was observed		OC[C@H]1OC(Oc2ccccc2-c2nc(-c3ccccc3O)nn2-c2ccccc2)[C@H](O)[C@@H](O)[C@@H]1O (some centres unmarked) [2b]			good stability in aqueous media
						OC[C@H]1OC(Oc2ccc(COc3ccccc3-c3nc(-c4ccccc4O)nn3-c3ccccc3)cc2)[C@H](O)[C@@H](O)[C@H]1O (some centres unmarked) [3a]	significant release of 1	further increased	
significant release of 1	further increased	11%	1%	less pronounced emission	successful cleavage	OC[C@H]1OC(Oc2ccc(COc3ccccc3-c3nc(-c4ccccc4O)nn3-c3ccccc3)cc2)[C@H](O)[C@@H](O)[C@@H]1O (some centres unmarked) [3b]			
